Results on 15 molecules are retold here after PubChem BioAssay (NCI).

Values joined by “and” are separate entries in the source; they are usually repeats but may differ in a detail not shown here. Equal values may be shown once.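 Where inhibition never reached the appropriate level, the endpoint shown equals the highest concentration tested. Otherwise, values were interpolated linearly from a five-concentration, 48-hour dose response in 96-well plates. TGI denotes the concentration required for complete inhibition of growth.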 Numbered stars: 1 amine (or outer) side, 2 acyl side, 3 side chain; on linkers, the order of the positions; unused ones are H or OH. Bridge positions count the residues as written; N and C are the ends. Square brackets hold non-standard residues; d marks the D form. Peptide text beside a SMILES is read from it. I, II: the chains in the order shown. Actinocin(1to9) = Cc1c2oc3c(C)ccc(C(=O)[*:2])c3nc-2c(C(=O)[*:1])c(N)c1=O; NMeV = CN[CH](C(=O)O)C(C)C; Sar = CNCC(=O)O Some results are limits rather than exact numbers.

What all share (experiment): growth of human tumour cells (NCI), 48 h
Test [1] concerns K-562 leukemia.
Test [2] has as its system HOP-92 NSCLC.
The test system of test [3] is CCRF-CEM leukemia.
Test [4] deals with MDA-MB-231 breast.
Test [5] has as its system NCI-H226 lung.
Test [6] deals with UACC-62 melanoma.
Test [7] has as its system A498 renal.
Test [8] concerns HS 578T breast.
The test system of test [9] is M14 melanoma.
The subject of test [10] is HL-60(TB) leukemia.
Test [11] relates to SK-MEL-5 melanoma.
The test system of test [12] is U251 CNS.
Test [13] concerns NCI-H460 lung.
The subject of test [14] is RPMI-8226 leukemia.
Test [15] has as its system IGROV1 ovarian.
In test [16] the test system is NCI-H522 lung.
Test [17] concerns MCF7 breast.
Test [18] concerns OVCAR-8 ovarian.
Test [19] concerns SNB-75 CNS.

In the case of `N#CCCN(CCC#N)c1ccc(/C=C2\N=C(c3ccccc3)N(c3ccccc3)C2=O)cc1`, the TGI in test [1], in [2], in [3], in test [4], in [5] and in test [6] was > 100 µM in each case. The TGI in test [7] was > 100 µM; in [8], 87.6 µM; in [9], > 100 µM; in test [10] it was > 100 µM; in test [11], > 100 µM; in test [12], > 100 µM. Also, the TGI in test [13], in [14], in test [15], in test [16], in [17] and in [18] was > 100 µM throughout.
As for `OCC1(CNc2cc(Cl)ncn2)CCC1`, the TGI in [1], in test [2], in [3], in [4], in [19] and in test [5] was > 100 µM in each case. For the same molecule, the TGI in [7], in test [8], in test [10], in test [11], in [12] and in test [13] was > 100 µM each time. The TGI in test [14], in test [15], in test [16], in [17] and in [18] was > 100 µM each time.
Consider `COc1cc2c3c4c1OCc1c5c(cc(c1-4)CC3[N+](C)(C)CC2)OCO5` (configuration not stated), for which the TGI in [1], in test [2], in test [3], in test [4], in test [19] and in test [5] was > 100 µM each time. The TGI in test [6] is > 100 µM; in [7], > 100 µM; in [8], 31.7 µM; in test [9] it was > 100 µM; in [10], > 100 µM; in test [11], > 100 µM. Also, the TGI in test [12] was > 64.1 µM; in test [13], > 100 µM; in [14], > 100 µM; in test [15], > 100 µM; in test [16], 98 µM; in test [17], > 100 µM. The TGI in [18] was > 100 µM.
`COC(=O)c1ccccc1Nc1ccccc1C(=O)OC`: the TGI in [1] was > 100 µM; in test [2] it was 75.5 µM; in test [3], > 100 µM; in [4] it was > 100 µM; in [19] it was > 100 µM; in [5], 71.6 µM. Further, the TGI is > 100 µM in test [6]; > 100 µM in test [7]; 72.2 µM in [8]; > 100 µM in test [9]; > 100 µM in [10]; > 100 µM in test [11]. Besides, the TGI in [12], in test [13], in [14], in test [15], in test [16] and in test [17] was > 100 µM each time. Besides, in test [18], the TGI is > 100 µM.
Take `CCC(C)C1NC(=O)C(NC(=O)c2c3nc4c(C(=O)NC5C(=O)NC(C(C)C)C(=O)N6CCCC6C(=O)N(C)CC(=O)N(C)C(C(C)C)C(=O)OC5C)ccc(C)c4oc-3c(C)c(=O)c2N)C(C)OC(=O)C(C(C)C)N(C)C(=O)CN(C)C(=O)C2CCCN2C1=O` (configuration not stated) (I: TIP[Sar][NMeV] / II: TVP[Sar][NMeV]; ester I:1-I:C, II:1-II:C; linker I:N-II:N via Actinocin(1to9); configuration not given here): the TGI was 0.105 µM in [1]; 0.0476 µM in test [2]; 0.0753 µM and 0.261 µM in [4]; 0.579 µM in test [19]; 0.153 µM in test [5]; 0.00433 µM in test [7]. The TGI was found to be 0.363 µM in test [8]; 0.161 µM in test [9]; 0.163 µM in [10]; 0.111 µM in test [11]; 10.1 µM in test [12]; 0.0323 µM in test [14]. Besides, the TGI was 0.906 µM in test [15], 0.0158 µM in [16] and > 100 µM in test [17].
With `CCOC(=O)C(C(=O)OCC)C(NC(=O)Nc1cc(C(F)(F)F)ccc1OC)(C(F)(F)F)C(F)(F)F`, the TGI was 74.5 µM in test [1]; 55.8 µM in test [2]; 70.9 µM in test [3]; 39.7 µM in test [4]; 72.4 µM in test [5]; 88.8 µM in [6]. The TGI was 31.9 µM in [7]; > 100 µM in test [8]; 45 µM in [9]; 48.9 µM in test [10]; 39.6 µM in test [11]; 59.1 µM in test [12]. Also, the TGI in test [13] is > 100 µM; in test [14], 56.8 µM; in [15], 96.9 µM; in test [16], 55.9 µM; in test [17], > 100 µM; in test [18], > 100 µM.
As for `CC1OC(n2cnc3c(N)nc(Cl)nc32)C(C)(O)C1O` (configuration not stated), the TGI in test [1] is > 25 µM; in test [2] it was > 25 µM; in test [3], > 25 µM; in test [4] it was > 25 µM; in test [19] it was 15.2 µM; in test [5], > 25 µM. For the same molecule, the TGI in test [6], in test [7], in test [8], in test [9], in [10] and in test [11] was > 25 µM in each case. The TGI in test [14], in [15], in test [16], in [17] and in test [18] was > 25 µM each time.
On to `COc1cc(C2S/C(=C/c3ccccc3)C(=O)N2c2ccccn2)cc(OC)c1OC` (configuration not stated), for which the TGI in [1] was > 100 µM; in [2] it was 33.6 µM; in test [3], > 100 µM; in [4] it was > 84.8 µM; in [19], 39.7 µM; in test [5], > 96.4 µM. The TGI in test [6] is 29.8 µM; in [7], 33.4 µM; in test [8] it was > 68 µM; in [9], 31.8 µM; in test [10] it was > 100 µM; in test [11] it was 56.6 µM. For the same molecule, the TGI in test [12] is 28.1 µM; in test [14] it was 73.3 µM; in test [15], 29.9 µM; in test [16], 24.6 µM; in [17], > 57.9 µM; in test [18], 31.2 µM.
With `OCC(O)C(O)C(C=NNc1ncnc2ccc(Br)cc12)=NNc1ncnc2ccc(Br)cc12` (configuration not stated), the TGI in test [1] is > 100 µM; in test [2], 10.4 µM and > 100 µM; in test [4], 31.3 µM and > 100 µM; in test [19], 17.6 µM and > 100 µM; in test [7] it was 18 µM and 75.2 µM; in test [8], > 100 µM. For the same molecule, the TGI is 4.91 µM and 17.4 µM in test [9]; > 100 µM in test [10]; 2.68 µM and 4.28 µM in [11]; 67.3 µM and > 100 µM in test [12]; > 100 µM in [14]; 12.2 µM and > 100 µM in test [15]. Besides, the TGI in [16] was 11.3 µM and 35.9 µM; in test [17], 35 µM and > 100 µM; in test [18], 46.9 µM and > 100 µM.
For `N#Cc1c(Nc2ccccc2)[n+]([O-])c2ccc(Cl)cc2[n+]1[O-]`, the TGI was > 22.6 µM in test [1]; 4.22 µM in [2]; > 27.2 µM in test [3]; > 67 µM in test [4]; > 96.6 µM in [19]; > 45.2 µM in test [5]. In addition, the TGI is 31.5 µM in test [6]; > 61.3 µM in [7]; > 72.8 µM in test [8]; 34.1 µM in [9]; 12.1 µM in [10]; 4.84 µM in [11]. For the same molecule, the TGI was 15.6 µM in test [12]; > 24.7 µM in test [14]; 5.96 µM in test [15]; 6.49 µM in test [16]; > 35.2 µM in test [17]; 10.7 µM in test [18].
Take `Cc1cn(C2CC(O)C(Cn3nncc3Cn3ccc(=O)[nH]c3=O)O2)c(=O)[nH]c1=O` (configuration not stated): the TGI in test [2], in test [3], in [4], in [19], in [5] and in test [6] was > 100 µM throughout. Further, the TGI in test [7], in test [8], in test [9], in [10], in test [11] and in [12] was > 100 µM in each case. In addition, the TGI in test [14], in test [15], in [16], in test [17] and in test [18] was > 100 µM each time.
As to `COc1cc(N(CCC#N)CCC#N)ccc1/C(N=Nc1cccc(C)c1)=N\NC(=O)c1ccc(C)cc1`, the TGI in test [1], in test [2], in test [3], in test [4], in test [5] and in [6] was > 100 µM in each case. The TGI was 44.1 µM in [7]; > 100 µM in test [8]; > 100 µM in test [9]; > 100 µM in [10]; > 100 µM in test [11]; > 100 µM in test [12]. Besides, the TGI in test [13], in test [14], in test [15], in test [16], in test [17] and in [18] was > 100 µM in each case.
As for `O[C@H]1[C@@H]2OC[C@@H](O)[C@H](OCc3ccccc3)[C@@](COCc3ccccc3)(O2)[C@@H]1OCc1ccccc1`, the TGI in test [1] amounted to 67 µM; in test [2], 26.3 µM; in [3], 42.1 µM; in test [4], 30.9 µM; in test [19], 18.7 µM; in test [6] it was 23.5 µM. In addition, the TGI in test [7] turned out to be 31.4 µM; in test [8] it was 40.7 µM; in test [9], 36.3 µM; in [10], 68.6 µM; in [12], 30.4 µM; in test [13], 53.8 µM. Also, the TGI in test [14] turned out to be 31.9 µM; in test [15], 27.5 µM; in test [16], 27.7 µM; in test [17] it was 39.6 µM; in [18], 31 µM.
In the case of `NC1=CN(Cc2ccccc2)C2=N/C(=C\c3ccco3)C(=O)N12`, the TGI in [1], in test [2], in test [3], in [4], in test [19] and in test [5] was > 100 µM in each case. The TGI in test [6], in [7], in [8], in test [9], in [10] and in [11] was > 100 µM in each case. Also, the TGI in [12], in test [13], in test [15], in test [16], in test [17] and in [18] was > 100 µM throughout.
Turning to `Cc1ccc(S(=O)(=O)N/N=C2\CC3C4CCC3C2C4)cc1` (configuration not stated), the TGI in [1], in test [2], in test [3], in test [4], in test [19] and in test [5] was > 100 µM in each case. The TGI in [6], in [7], in [8], in test [9], in [10] and in [11] was > 100 µM throughout. In addition, the TGI in test [12], in test [13], in test [15], in test [16], in [17] and in [18] was > 100 µM throughout.
